Each structure is given as a SMILES string.

For 78 molecules, RP-LC retention time results are on record in the METLIN SMRT retention time set (Domingo-Almenara et al. 2019).

The nature of the data set: gradient 5% acetonitrile 3 min, to 50% in 2 min, to 85% in 15 min, held 3 min, 100 µL/min. The following applies: column: Zorbax Extend-C18 2.1 x 50 mm; eluents: water / acetonitrile, 0.1% formic acid. An outline of the steps:
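Over 3 months, pure standards in mixtures of ~100 molecules were run by HPLC coupled to a quadrupole time-of-flight mass spectrometer in positive and negative ionization mode. The column was a Zorbax Extend-C18 (2.1 × 50 mm, 1.8 μm) at 100 μL/min, eluted with water and acetonitrile each holding 0.1% formic acid, with 40 μL dead and 900 μL dwell volumes. Retention time was determined from adduct peaks chosen by software and checked manually.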
The molecule `CC(Oc1cccc(Cl)c1)c1nc(-c2ccc3ncn(C)c3c2)no1` (stereo not drawn) came in with an RP-LC retention time of 827 s. Then `CCOc1ccc(CNC(=O)C2CCCN(c3cc(=O)n(C)c(=O)n3CC)C2)cc1` (stereo not drawn), with 812 s; and `O=C(NC1CCCC1)NC1CCN(c2nc3cccnc3n(Cc3ccccc3)c2=O)CC1`, with 990 s. The figure for `Cc1cccc(CNC(=O)c2ccc(CN3CCN(C(C)C)C(=O)C3=O)cc2)c1` is 714 s.

Molecule `Cc1cccc(Cl)c1S(=O)(=O)Nc1ccc2c(c1)CCC(=O)N2C` gave an RP-LC retention time of 788 s. Then `O=C(Nc1cccc(F)c1)N1CCN(c2ncccc2-c2nnc(C3CC3)o2)CC1`, with 783 s; and `CCOc1cccc(C(=O)Nc2nc(-c3ccc(C(C)(C)C)cc3)cs2)c1`, with 1430 s; and `N#Cc1ccc(NC(=O)C2CCN(S(=O)(=O)c3cc(-c4noc(C5CCC5)n4)cs3)CC2)cc1`, with 1050 s.

With `CCC(C)C(NC(=O)c1ccc(C(C)C)cc1)C(=O)Nc1nc2ccccc2[nH]1` (stereo not drawn), the RP-LC retention time was 856 s. On to `Cn1cnc2c(C(=O)Nc3ccccc3)nn(-c3ccccc3)c2c1=O`, for which the RP-LC retention time amounted to 835 s.

Regarding `Cc1cc2c(cc1S(=O)(=O)N(C)CC(=O)N1CCN(c3ccccn3)CC1)OCC(=O)N2`, the RP-LC retention time was found to be 583 s. `O=C(c1cc(-c2ccncc2)n[nH]1)N1CCC(C(=O)N2CCN(c3ccc(Cl)cc3)CC2)CC1`: the RP-LC retention time was 672 s. Then `O=C(NCc1cccs1)c1cccn1Cc1noc(-c2ccc(Cl)cc2)n1`, with 1080 s. Then `Cc1ccccc1-c1nc(-c2ccc(N3CCSCC3)nc2)no1`, with 1320 s; and `COc1ccccc1Cc1nc(-c2cn(-c3cccc(F)c3)nn2)no1`, with 1040 s. The figure for `CC1(CNS(=O)(=O)c2ccc(F)c(F)c2)CCOCC1` is 810 s; for `CN(C)c1ncccc1C(=O)NC1CCCCC1` it is 588 s.

Turning to `Cc1cc(C)n(Cc2nc(-c3ccc(NC(=O)Cc4ccccc4F)cc3)oc2C)n1`, the RP-LC retention time was 915 s.

On to `COc1ccc(NC(=O)c2cn3c(n2)CSCC3)c(C)c1`, for which the RP-LC retention time was determined as 674 s. The figure for `CCN(CC)c1ncnc2c1cnn2CC(=O)N1CCN(c2ccccn2)CC1` is 549 s; for `O=C(NCCc1ccccc1)N1CCN(c2nc3cccnc3n(Cc3ccccc3)c2=O)CC1` it is 1080 s; for `O=C(Cn1cccc1-c1nc(-c2ccc3c(c2)OCO3)no1)Nc1ccc(F)cc1` it is 994 s.

`O=C(Cn1c(CN2CCCCCC2)nc2ccccc21)N1CCCCC1` registered an RP-LC retention time of 662 s.

In turn, `CCc1nc(N)n(CC(=O)Nc2ccccc2F)c(=O)c1C` came in with an RP-LC retention time of 599 s. In turn, `Cc1cc2n(n1)CCC(=O)N2CCCC(=O)NCCCN1CCCC(C)C1` (stereo not drawn) gave an RP-LC retention time of 570 s. The figure for `O=C(NCc1nc(-c2ccc(NS(=O)(=O)c3ccccc3)cc2)no1)c1cccs1` is 832 s; for `CCCCNC(=O)C(=O)NCC1OCCc2ccccc21` (stereo not drawn) it is 879 s; for `CCOC(=O)N1CCN(c2cc(C(=O)O)c3cc(NC(=O)c4ccccc4OC)ccc3n2)CC1` it is 629 s.

In turn, `CCOCCCNC(=O)c1ccc(CS(=O)c2ccccc2Cl)o1` (stereo not drawn) displayed an RP-LC retention time of 704 s. The figure for `COc1cc(OC)cc(-c2nc(NC(=O)C3CCCN(c4cnc5ccccc5n4)C3)n[nH]2)c1` (stereo not drawn) is 1020 s. The molecule `CC(C)c1ccc(CNC(=O)c2ccc3c(c2)nc2n3CCN(C(C)C)C2=O)cc1` registered an RP-LC retention time of 823 s. Then `Cc1oc(-c2[nH]ncc2C(=O)N2CCCC2)cc1S(=O)(=O)N1CCN(C)CC1`, with 574 s; and `Cc1ccc(-c2ccc(N3CCCC(C(=O)N4CCC(C(N)=O)CC4)C3)nn2)cc1C` (stereo not drawn), with 622 s. Turning to `CC1CCN(C(=O)C2=NN(C(C)C)c3cc(Cl)ccc3S2(=O)=O)CC1`, the RP-LC retention time was 1020 s. Then `CN1C(=O)c2cc(C(=O)Nc3ccccc3Br)nn2CC1(C)C(=O)NC1CCCCC1` (stereo not drawn), with 807 s; and `CCCN1CCN(C(=O)CN2C(=O)C3CCCCN3c3ccc(C(=O)N4CCCCC4)cc32)CC1` (stereo not drawn), with 652 s; and `CCCNc1cc(N2CCC(CCC(=O)NCc3cccs3)CC2)ncn1`, with 661 s.

In turn, `COc1ccc(N2CC(C(=O)N3CCN(c4ccccn4)CC3)CC2=O)cc1` (stereo not drawn) registered an RP-LC retention time of 582 s. Then `O=S(=O)(c1cccc(-c2nnc(-c3ccc(F)cc3)o2)c1)N1CCCCCC1`, with 1110 s; and `O=C(c1cc(=O)c2ccccc2o1)N1CCC(c2nnc(-c3ccc(F)cc3)o2)CC1`, with 746 s. Then `CCCC(NC(=O)c1cc(OC)cc(OC)c1)C(=O)Nc1nc2ccccc2[nH]1` (stereo not drawn), with 719 s.

As to `O=C1CCCc2cc(S(=O)(=O)N3CCC(C(=O)NCc4ccc(F)cc4)CC3)ccc2N1`, the RP-LC retention time turned out to be 724 s.

In the case of `c1cnc(N2CCN(Cc3ccc4c(c3)OCO4)CC2)nc1`, the RP-LC retention time is 432 s. Then `COc1ccc(OC)c(NC(=O)Cn2c(=O)n(-c3ccc(C)cc3)c(=O)c3c2cc(C)n3C)c1`, with 908 s.

Consider `Cc1ccc(S(=O)(=O)Nc2ccc(-c3cn4ccccc4n3)cc2)cc1`, for which the RP-LC retention time turned out to be 628 s.

In the case of `Cc1cc(C)n2c(Nc3cccc(C(F)(F)F)c3)c(-c3cc(Br)ccc3O)nc2n1`, the RP-LC retention time was 1060 s. `Cc1cc(-c2nc(-c3ccc(F)cc3)no2)c(C)n1CC(=O)NC1CCCC1` returned an RP-LC retention time of 1080 s.

The molecule `CCc1cc(=O)n(CC(=O)N2CCN(c3ccc(F)cc3)CC2)c(N2CCOCC2)n1` displayed an RP-LC retention time of 720 s.

In turn, `CCCn1cc(CCNC(=O)Cc2ccccc2Cl)c2cccnc21` showed an RP-LC retention time of 770 s.

Molecule `Cc1oc(-c2[nH]ncc2C(=O)N(C)C)cc1S(=O)(=O)N1CCN(CC(C)C)CC1` showed an RP-LC retention time of 580 s.

Consider `Cc1nc(-c2ccc(OCC(C)C)c(C#N)c2)sc1C(=O)O`, for which the RP-LC retention time was 1040 s.

Take `Cc1cccc(NC(=O)N2CCCC2C(=O)N(C)C)c1` (stereo not drawn): the RP-LC retention time is 643 s. Molecule `CC(C)CNC(=O)N1CCCCC1c1nncn1-c1ccccc1` (stereo not drawn) gave an RP-LC retention time of 683 s. The figure for `Cc1onc(-c2ccccc2)c1-c1ccc(S(N)(=O)=O)cc1` is 869 s; for `CCOc1ccc(CNC(=O)Cc2cn(C)c3ncccc23)cc1` it is 698 s; for `O=S(=O)(c1ccccc1)N1CCCC(c2nc(CCOCC3CC3)no2)C1` (stereo not drawn) it is 924 s. Then `CSc1ccc(-c2noc(Cn3c(=O)n(-c4cccc(F)c4)c(=O)c4sccc43)n2)cc1`, with 1040 s. As to `Cc1cc(=O)n(CC(=O)Nc2cc(F)ccc2F)c(N2CCc3ccccc3C2)n1`, the RP-LC retention time turned out to be 849 s.

In turn, `CCc1cccc(Nc2c(-c3nc(C)no3)cnc3nc(C)ccc23)c1` yielded an RP-LC retention time of 835 s. Then `CCN1c2ccccc2C(=O)NC12CCN(C(=O)Nc1cccc(OC)c1)CC2`, with 703 s; and `COc1cccc(NC(=O)c2c(O)c3cccnc3n(-c3ccc(F)cc3)c2=O)c1`, with 1200 s. As for `Cc1ccc(-c2nnc(N3CCC(C(=O)N4CCN(CC(C)C)CC4)CC3)o2)cc1`, the RP-LC retention time amounted to 639 s.

`CC1(C(=O)NCc2ccc(F)cc2)Cn2cnc(C(=O)NCc3ccccc3F)c2C(=O)N1C1CC1` (stereo not drawn) registered an RP-LC retention time of 751 s. Then `CC(C)n1cnc2cc(CNC(=O)c3nn(C)c4ccccc34)ccc21`, with 629 s; and `CCOC(=O)COc1cc(-c2ccccc2)nc2ccc(NC(=O)c3ccco3)cc12`, with 743 s. The figure for `COC(=O)c1ccc2c(=O)n(-c3cc(C)cc(C)c3)c(N3CCN(Cc4ccccc4)CC3)nc2c1` is 770 s. The figure for `Cc1ccccc1S(=O)(=O)N1CCC(CCC(=O)O)CC1` is 807 s.

Consider `Cc1cccc(C)c1NC(=O)Cn1nc2n(c1=O)CCCCC2`, for which the RP-LC retention time was 684 s. On to `COc1ccc(OC)c(S(=O)(=O)N2CCC(Cn3c(C)cnc3C)C2)c1` (stereo not drawn), for which the RP-LC retention time worked out at 626 s. The figure for `C=CCn1c(=O)c2c(nc3n2CC(C)CN3c2cc(C)cc(C)c2)n(C)c1=O` (stereo not drawn) is 1040 s; for `NS(=O)(=O)c1ccc(-n2nc(C(F)(F)F)cc2-c2ccc(Cl)cc2)cc1` it is 959 s.

Take `COc1ccc(-c2nc3n(n2)C2(CCCCC2)[C@@H]2CCCC[C@@H]2N3C(=O)C2CC2)cc1`: the RP-LC retention time worked out at 682 s.

The molecule `C=CCn1nc2ccc(S(=O)(=O)N3CCSCC3)cn2c1=O` returned an RP-LC retention time of 744 s.

Molecule `CC(C)c1noc(-c2ccc(-n3cnc(C(=O)NC(C)c4ccc(F)cc4)c3)nc2)n1` (stereo not drawn) gave an RP-LC retention time of 1020 s. The figure for `NS(=O)(=O)c1ccc(CCNS(=O)(=O)c2cccc(-c3nc(-c4ccccc4)no3)c2)cc1` is 952 s; for `O=C(NCc1ccccn1)C1CCc2sc(C(=O)N3CCCCCC3)cc2C1` (stereo not drawn) it is 552 s; for `COc1ccc(C2Cn3cnc(C(=O)N4CCC(C(=O)NC5CCCCC5)CC4)c3CO2)cc1` (stereo not drawn) it is 697 s.

`CCCn1c(=O)sc2cc(S(=O)(=O)N3CCC(C(=O)Nc4ccccc4OC)CC3)ccc21` showed an RP-LC retention time of 1000 s.
